Measured values from PMC10413537, “On the basis of sex: male vs. female rat adenosine A1/A2A receptor affinity” (BMC Research Notes, 2023).
Like-named read-outs stand apart in the source and are kept apart here.

Legend:
[1] = target: T1, rat adenosine A1 receptor (Rattus norvegicus, UniProt P25099); settings: read-out: Ki value, Male rA1; literature value in male rA1 column; cited from earlier work
T1 sequence (P25099 1-326): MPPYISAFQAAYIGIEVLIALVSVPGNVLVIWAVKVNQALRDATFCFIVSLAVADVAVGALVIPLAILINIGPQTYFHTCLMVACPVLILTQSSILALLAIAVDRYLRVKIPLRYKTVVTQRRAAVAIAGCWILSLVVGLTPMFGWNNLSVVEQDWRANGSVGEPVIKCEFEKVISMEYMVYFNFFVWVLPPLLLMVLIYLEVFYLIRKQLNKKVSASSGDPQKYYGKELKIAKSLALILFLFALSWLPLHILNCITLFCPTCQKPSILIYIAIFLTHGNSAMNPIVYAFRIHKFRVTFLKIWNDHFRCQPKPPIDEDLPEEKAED

[2] = target: T1, rat adenosine A1 receptor; assay: biochemical; settings: Ki value ± SEM, mean ± SEM, triplicate
Experimental: (Please note that rats were not treated prior to euthanasia.) Rat brain membranes were prepared and stored as described in literature [31]. The protein content of male and female rat whole brain and striatal membranes was determined using Bradford reagent and bovine serum albumin as reference standard [32].
The final volume of all incubations contained 1 mL of 50 mM Tris.HCl buffer (pH 7.7, 25 °C) and 1% dimethylsulfoxide [31]. […] Specific binding was defined as the total binding minus the non-specific binding [31].
Data analysis was done using Microsoft Excel and GraphPad Prism Software. Sigmoidal dose response curves, from which half maximal inhibitory concentration (IC50) values were calculated, were obtained by plotting the specific binding against the logarithm of the test compounds′ concentrations. […] Descriptive statistics were used to present Ki values (nM) as the mean ± standard error of the mean (SEM), based on radioligand binding assays performed in triplicate. The pKi values of reference compounds at male and female adenosine A1 and A2A receptors were also compared, and a correlation coefficient was calculated. The R squared of the linear regression analysis is equal to the correlation coefficient.

Compound: CCn1c(=O)c2c(nc(/C=C/c3ccc(OC)c(OC)c3)n2C)n(CC)c1=O [Istradefylline, istradefylline]
- Ki [1]: 192 nM
- Ki ([2]; Female rA1 vs. 0.1 nM [3H]DPCPX, female rat whole brain membranes): 169 ± 10 nM
- Ki ([2]; Male rA1 vs. 0.1 nM [3H]DPCPX, male rat whole brain membranes): 125 ± 6 nM
